The conditions of data set [1]: DTA.
Data set [2] in a line: Molar enthalpy of transition or fusion. To be noted: DSC.

“And” between values parts separate entries of the source, which are not always exact repeats. Equal values may be shown once. ± gives the expanded uncertainty stated by the source.

Three molecules from the NIST ThermoML archive (doi:10.1016/j.jct.2006.07.023) can be followed below.

With `CCC(=O)[O-].CCC(=O)[O-].[Pb+2]` [lead(2+) dipropanoate], in data set [1] (Crystal), the Triple point temperature was 398.1 ± 1.1 K. In data set [1], the Glass transition temperature turned out to be 25 ± 3 °C. For the same molecule, in data set [2] (Crystal), the “Molar enthalpy of transition or fusion” value is 3.13 ± 0.0956 kcal/mol.
The matching figures for `CC(=O)[O-].CC(=O)[O-].[Pb+2]` [lead(2+) acetate]: 452.3 ± 1.6 K, 41.2 ± 3 °C and 3.78 ± 0.0956 kcal/mol.
For `CCCC(=O)[O-].CCCC(=O)[O-].[Pb+2]` [lead(2+) dibutanoate], the Triple point temperature in data set [1] (Crystal) is 346.5 ± 0.7 K and 346.3 ± 0.9 K; in data set [1] (Metastable crystal) it was 322.8 ± 1.1 K. Further, in data set [1], the Glass transition temperature turned out to be 1.8 ± 3 °C. Besides, the “Molar enthalpy of transition or fusion” value is 3.51 kcal/mol and 3.49 kcal/mol in data set [2] (Crystal); 1.84 ± 0.191 kcal/mol in data set [2] (Metastable crystal).
